The text below walks through data of publication PMC5855594, “Poly-N-Acetyllactosamine Neo-Glycoproteins as Nanomolar Ligands of Human Galectin-3: Binding Kinetics and Modeling” (International Journal of Molecular Sciences, 2018).

Assay [1] deals with T1, human galectin-3 (Gal-3) (Homo sapiens, UniProt P17931).
T1 construct: made in house; host or cells: E. coli Rosetta (DE3) pLysS
Nature of the assay: Direct ELISA: binding of soluble His-tagged Gal-3 to immobilized neo-glycoproteins or ASF. An excerpt: To determine the binding affinities between Gal-3 and neo-glycoproteins 9–16, the binding of soluble Gal-3 to the neo-glycoproteins immobilized in microplate wells was quantified by colorimetric immunodetection using anti-His antibody conjugated to horseradish peroxidase (HRP) (Figure 2a). Gal-3 bound neo-glycoproteins in a concentration-dependent manner and the interaction was exclusively conferred by glycan moieties since no binding of Gal-3 to the glycan-free BSA was detected. Apparent dissociation constants (Kd) of the Gal-3/neo-glycoprotein complexes were calculated from a non-linear regression of binding curves.
The affinity of Gal-3 for neo-glycoproteins 9–16 was determined using ELISA as reported previously. For the immobilization of the respective neo-glycoproteins or non-modified BSA (negative control), we used F16 Maxisorp NUNC-Immuno Modules (Thermo Scientific, Roskilde, Denmark). Per well, an amount of 5 pmol was incubated overnight at a working concentration of 0.1 µM (PBS). Then the wells were blocked with bovine serum albumin (2% w/v) diluted in PBS (1 h, room temperature). […] The binding signal of bound galectin was measured with a spectrophotometer (Spectra Max Plus, Molecular Devices, Sunnyvale, CA, USA) at an optical density of 450 nm. Obtained data were analyzed using SigmaPlot 10 software (Systat Software GmbH, Erkrath, Germany).
A general note: In an ELISA, binding on a coated surface is turned into a signal by an enzyme label.

Assay [2] deals with T2, Gal-3-AVI (Homo sapiens, UniProt P17931).
T2 construct: made in house; host or cells: E. coli BL21 (λDE3), co-expressed with BirA
Nature of the assay: Direct ELISA with Gal-3-AVI construct. Format: binding. The settings on record: read-out: Kd app, direct ELISA. An excerpt: To overcome the difficulties with Gal-3 immobilization, we prepared a biotinylated version of Gal-3 through in vivo biotinylation of an AviTag peptide that was genetically fused to the N-terminus of Gal-3 (Gal-3-AVI) (Figure 3). The AviTag is a specific 15-amino acid peptide sequence ([…]) that directs a highly targeted enzymatic conjugation of a single biotin molecule to the specific lysine (K) residue within the AviTag sequence using biotin ligase (BirA). In contrast to chemical biotinylation, which usually generates heterogeneous products with impaired function, the co-translational biotinylation of the AviTag peptide is site specific and provides a highly homogeneous protein preparation. Moreover, the N-terminal localization of the AviTag peptide provides a favorable orientation of Gal-3-AVI on a streptavidin-coated surface, leaving the C-terminal carbohydrate-binding domain of Gal-3 freely accessible for binding interactions.
Table S1. Comparison of binding affinities of His6-tag Gal-3 and Gal-3-AVI in ELISA assays Kd app [µM], direct ELISA IC50 glycan [µM], competitive ELISA […]
Figure S7. SPR kinetic binding analysis of the interactions between asialofetuin (ASF) and immobilized Gal-3-AVI. ASF was injected in parallel over the neutravidin-coated sensor chip coated with the biotinylated Gal-3-AVI at a flow rate of 30 µl/min. […]

Assay [3] addresses T2, Gal-3-AVI. Nature of the assay: SPR with biotinylated Gal-3-AVI captured on neutravidin chip, neo-glycoproteins as analytes. Format: binding. The procedure: For SPR analysis, the biotinylated Gal-3-AVI was captured on a neutravidin-coated sensor chip, and the binding of serially diluted neo-glycoproteins 9–16 to immobilized Gal-3-AVI was analyzed. Three coupling concentrations of Gal-3-AVI were tested, so that the effect of mass transfer and the non-specific binding were minimized. As a result, the coupling level of 250 relative units (RU) along with the flow rate of 30 µL/min gave the optimum conditions and these parameters were used for the subsequent experiments.
Figure 4 SPR kinetic binding analysis of the interactions between neo-glycoproteins 9–16 and immobilized Gal-3-AVI. The neo-glycoproteins at indicated concentrations were injected in parallel over the neutravidin-coated sensor chip coated with the biotinylated Gal-3-AVI at a flow rate of 30 μL/min. The kinetic data were globally fitted by using a 1:1 Langmuir binding model. The fitted curves are superimposed as thin black lines on top of the sensograms. BSA, bovine serum albumin; rel., relative.
SPR measurements were performed at 25 °C using a set of sensor chips (GLC, NLC, HTE) mounted on a ProteOn XPR36 Protein Interaction Array System (Bio-Rad, Hercules, CA, USA ) as described previously. Briefly, Gal-3-AVI protein was diluted to a final concentration of 5 µg·mL^−1 in PBS and captured on a neutravidin-coated NLC sensor chip (Bio-Rad) at a flow rate of 30 µL·min^−1. Neo-glycoproteins 9–16, used here as analytes, were serially diluted in the running buffer (PBS supplemented with 0.005% Tween 20), and injected in parallel over the immobilized Gal-3-AVI at a flow rate of 30 µL·min^−1. The Gal-3-AVI surface was regenerated by a washing step with 50 mM HCl for 60 s. For the reversed experimental setup, the neo-glycoproteins 9–16 were immobilized on the GLC sensor chip by amine coupling chemistry and serial dilutions of Gal-3 were injected over the sensor surface. […] The equilibrium dissociation constant, KD, was determined as a ratio between the dissociation and association rate constants: KD=kd/ka

In assay [4] the target is T1, human galectin-3 (Gal-3). The settings on record: monovalent glycan; inhibition of Gal-3 binding to immobilized ASF; cited from earlier work.
Assay [5] addresses T1, human galectin-3 (Gal-3). Put plainly: Competitive ELISA: inhibition of His-tagged Gal-3 binding to immobilized asialofetuin (ASF). The settings on record: for increase of inhibitory potency compared to lactose (times): competitive ELISA; for IC50: read-out: IC50 Glycan. The procedure: To assess the inhibitory potential of glycans 1–8 and the respective neo-glycoproteins 9–16 towards Gal-3, their capacity to inhibit the binding of Gal-3 to immobilized asialofetuin (ASF) was determined by competitive ELISA inhibition analyses (Figure 2b). ASF is a multivalent glycoprotein presenting three triantennary N-glycans terminated with LacNAc, which is reported to interact with Gal-3. Here, Gal-3 was incubated with increasing concentrations of the glycans or neo-glycoproteins as competing ligands and the inhibition of Gal-3 binding to immobilized ASF was quantified by colorimetric immunodetection using anti-His antibody conjugated to HRP. […] The respective inhibition constants (IC50) were calculated from the non-linear regression of the sigmoidal inhibition curves and they are listed in Table 1.
In the competitive ELISA design, the F16 Maxisorp NUNC-Immuno Modules (Thermo Scientific, Roskilde, Denmark) were coated overnight with ASF (Sigma Aldrich, Steinheim, Germany; 0.1 µM in PBS, 50 µL, 5 pmol per well) and blocked with BSA (2% w/v) diluted in PBS (1 h, room temperature). […] Detection of bound Gal-3 and data analysis were performed as described above.

The target in assay [6] is T2, Gal-3-AVI. Put plainly: Competitive ELISA with Gal-3-AVI construct. It is filed as binding. The settings on record: read-out: IC50 glycan, competitive ELISA.
Where [7] appears, read: immobilized Gal-3-AVI, 1:1 Langmuir model, 25 °C.

Where two headings read alike, the source gives them in different places.

T1 sequence (P17931 whole entry): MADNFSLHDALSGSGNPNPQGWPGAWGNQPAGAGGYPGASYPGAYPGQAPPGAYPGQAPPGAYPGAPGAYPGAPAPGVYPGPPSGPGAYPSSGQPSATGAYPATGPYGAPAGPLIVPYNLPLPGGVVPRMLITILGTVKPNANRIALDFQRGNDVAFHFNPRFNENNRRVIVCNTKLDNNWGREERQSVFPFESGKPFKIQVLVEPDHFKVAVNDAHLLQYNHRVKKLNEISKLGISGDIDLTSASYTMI
T2 sequence (P17931 whole entry): as above

As to Asialofetuin [ASF], the Kd with human galectin-3 (Gal-3) [1] (His6-tag Gal-3, read-out: Kd app, direct ELISA) is 5 ± 1 µM. Also, the Kd with Gal-3-AVI [2] worked out at 4.8 ± 0.2 µM. Further, in the assay with Gal-3-AVI [3] (setting [7]), the ka result is reported as “(4.8 ± 1.9) × 10^4 M^−1·s^−1” and the kd entry is on record as “(4.0 ± 1.7) × 10^−4 s^−1”.
`CC(=O)N[C@@H]1[C@@H](O)[C@H](O[C@@H]2O[C@H](CO)[C@H](O)[C@H](O[C@@H]3O[C@H](CO)[C@@H](O[C@@H]4O[C@H](CO)[C@H](O)[C@H](O)[C@H]4NC(C)=O)[C@H](O)[C@H]3NC(C)=O)[C@H]2O)[C@@H](CO)O[C@H]1NC(=S)NCCNC(=O)OC(C)(C)C` [glycan 3, LacdiNAc-LacNAc]: at human galectin-3 (Gal-3) [4], the IC50 is 7 ± 1 µM.
Consider `CC(=O)N[C@@H]1[C@@H](O)[C@H](O[C@@H]2O[C@H](CO)[C@H](O)[C@H](O[C@@H]3O[C@H](CO)[C@@H](O[C@@H]4O[C@H](CO)[C@H](O)[C@H](O[C@@H]5O[C@H](CO)[C@@H](O[C@@H]6O[C@H](CO)[C@H](O)[C@H](O)[C@H]6NC(C)=O)[C@H](O)[C@H]5NC(C)=O)[C@H]4O)[C@H](O)[C@H]3NC(C)=O)[C@H]2O)[C@@H](CO)O[C@H]1NC(=S)NCCNC(=O)OC(C)(C)C` [glycan 5, LacdiNAc-LacNAc-LacNAc], for which the IC50 on human galectin-3 (Gal-3) [4] is 6.2 ± 0.02 µM.
Regarding `CC(=O)N[C@@H]1[C@@H](O)[C@H](O[C@@H]2O[C@H](CO)[C@H](O)[C@H](O)[C@H]2O)[C@@H](CO)O[C@H]1NC(=S)NCCNC(=O)OC(C)(C)C` [glycan 2], at human galectin-3 (Gal-3) [5], the “increase of inhibitory potency compared to lactose (times)” value is on record as “up to 4” and the IC50 is 36 ± 1 µM.
Regarding `CC(=O)N[C@@H]1[C@@H](O)[C@H](O[C@@H]2O[C@H](CO)[C@H](O)[C@H](O)[C@H]2NC(C)=O)[C@@H](CO)O[C@H]1NC(=S)NCCNC(=O)OC(C)(C)C` [glycan 1, LacdiNAc], at human galectin-3 (Gal-3) [5], the “increase of inhibitory potency compared to lactose (times)” value was “up to 4” and the IC50 came out at 42 ± 2 µM. On Gal-3-AVI [6], the 50% inhibitory concentration (IC50) was found to be 43 ± 4 µM.
With `CC(=O)N[C@@H]1[C@@H](O)[C@H](O[C@@H]2O[C@H](CO)[C@H](O)[C@H](O[C@@H]3O[C@H](CO)[C@@H](O[C@@H]4O[C@H](CO)[C@H](O)[C@H](O[C@@H]5O[C@H](CO)[C@@H](O)[C@H](O[C@@H]6O[C@H](CO)[C@H](O)[C@H](O)[C@H]6O)[C@H]5NC(C)=O)[C@H]4O)[C@H](O)[C@H]3NC(C)=O)[C@H]2O)[C@@H](CO)O[C@H]1NC(=S)NCCNC(=O)OC(C)(C)C` [glycan 7, LacNAc type 1-LacNAc-LacNAc], at human galectin-3 (Gal-3) [4], the IC50 was 12.5 ± 0.1 µM.
For bovine serum albumin [BSA], the “binding of Gal-3 in direct ELISA” value at human galectin-3 (Gal-3) [1] (negative control, immobilized) is given as “no binding”. Moreover, the “SPR response / binding to immobilized Gal-3-AVI” value at Gal-3-AVI [3] (nanomolar concentrations) is listed as “no binding”.
On to `CC(=O)N[C@@H]1[C@@H](O)[C@H](O[C@@H]2O[C@H](CO)[C@H](O)[C@H](O[C@@H]3O[C@H](CO)[C@@H](O[C@@H]4O[C@H](CO)[C@H](O)[C@H](O)[C@H]4O)[C@H](O)[C@H]3NC(C)=O)[C@H]2O)[C@@H](CO)O[C@H]1NC(=S)NCCNC(=O)OC(C)(C)C` [glycan 4, LacNAc-LacNAc], for which the IC50 on human galectin-3 (Gal-3) [4] is 13 ± 3 µM.
Consider `CC(=O)N[C@@H]1[C@@H](O)[C@H](O[C@@H]2O[C@H](CO)[C@H](O)[C@H](O[C@@H]3O[C@H](CO)[C@@H](O[C@@H]4O[C@H](CO)[C@H](O)[C@H](O[C@@H]5O[C@H](CO)[C@@H](O[C@@H]6O[C@H](CO)[C@H](O)[C@H](O)[C@H]6O)[C@H](O)[C@H]5NC(C)=O)[C@H]4O)[C@H](O)[C@H]3NC(C)=O)[C@H]2O)[C@@H](CO)O[C@H]1NC(=S)NCCNC(=O)OC(C)(C)C` [glycan 6, LacNAc-LacNAc-LacNAc], for which the IC50 on human galectin-3 (Gal-3) [4] was 20.1 ± 0.1 µM.
Regarding `CC(=O)N[C@@H]1[C@@H](O)[C@H](O[C@@H]2O[C@H](CO)[C@H](O)[C@H](O[C@@H]3O[C@H](CO)[C@@H](O[C@@H]4O[C@H](CO)[C@H](O)[C@H](O[C@@H]5O[C@H](CO)[C@@H](O[C@@H]6O[C@H](CO)[C@H](O)[C@H](O[C@H]7O[C@H](CO)[C@H](O)[C@H](O)[C@H]7O)[C@H]6O)[C@H](O)[C@H]5NC(C)=O)[C@H]4O)[C@H](O)[C@H]3NC(C)=O)[C@H]2O)[C@@H](CO)O[C@H]1NC(=S)NCCNC(=O)OC(C)(C)C` [glycan 8, Galili-LacNAc-LacNAc], on human galectin-3 (Gal-3) [4], the IC50 was 8.4 ± 0.1 µM.

What is called IC50 is the point on the concentration scale where inhibition reaches its midpoint.
